Data from patent US20260132125A1, “PESTICIDALLY ACTIVE FUSED BICYCLIC HETEROAROMATIC COMPOUNDS” (priority 2022, published 2026).

Tests used:
Assay type in all cases: in vivo
Plutella xylostella = assay: Example B5: activity against Plutella xylostella (diamond back moth), artificial diet, eggs; settings: 192 h, 8 days after infestation, read-out: effect in at least one of the two categories (mortality or growth inhibition)
Description: 24-well microtiter plates with artificial diet were treated with aqueous test solutions prepared from 10′000 ppm DMSO stock solutions by pipetting. After drying, Plutella eggs were pipetted through a plastic stencil onto a gel blotting paper and the plate was closed with it. The samples were assessed for mortality and growth inhibition in comparison to untreated samples 8 days after infestation. The following compounds gave an effect of at least 80% in at least one of the two categories (mortality or growth inhibition) at an application rate of 200 ppm: P1, P2, P3, P4, P5, P6, P7, P8, P9, P10, P11, P12, P13, P14, P15, P16, P17, P18, P19, P20, P21, P22, P23, P24, P25, P26, P27, P28, P29, P30, P31, P32, P33, P34, P35, P36, P37, P38, P39, P40, P41, P42, P43, P44, P45, P46, P47, P48, P49, P50, P51, P52, P53, P54, P55, P57, P58, P59, P60, P61, P62, P63, P64, P65, P66, P67, P69, P70, P71, P72, P73, P74, P75, P77, P78, P81, P82, P83.

Chilo suppressalis = assay: Example B1: activity against Chilo suppressalis (striped rice stemborer), artificial diet; settings: for percent control (mortality, anti-feedant effect or growth inhibition) at 200 ppm: 144 h, L2 larvae, 6 days after infestation, read-out: control (at least one of mortality, anti-feedant effect, growth inhibition)
Description: 24-well microtiter plates with artificial diet were treated with aqueous test solutions prepared from 10′000 ppm DMSO stock solutions by pipetting. After drying, the plates were infested with L2 larvae (6-8 per well). The samples were assessed for mortality, anti-feeding effect, and growth inhibition in comparison to untreated samples 6 days after infestation. Control of Chilo suppressalis by a test sample is given when at least one of the categories mortality, anti-feedant effect, and growth inhibition is higher than the untreated sample.

Spodoptera littoralis = assay: Example B6: activity against Spodoptera littoralis (Egyptian cotton leaf worm), cotton leaf discs; settings: foliar; for percent control (mortality, anti-feedant effect or growth inhibition) at 200 ppm: 72 h, L1 larvae, 3 days after infestation, read-out: control (at least one of mortality, anti-feedant effect, growth inhibition)
Description: Cotton leaf discs were placed onto agar in 24-well microtiter plates and sprayed with aqueous test solutions prepared from 10′000 ppm DMSO stock solutions. After drying the leaf discs were infested with five L1 larvae. The samples were assessed for mortality, anti-feeding effect, and growth inhibition in comparison to untreated samples 3 days after infestation. Control of Spodoptera littoralis by a test sample is given when at least one of the categories mortality, anti-feedant effect, and growth inhibition is higher than the untreated sample.

Diabrotica balteata = assay: Example B2: activity against Diabrotica balteata (corn root worm), maize sprouts; settings: 96 h, L2 larvae, 4 days after infestation, read-out: effect in at least one of the two categories (mortality or growth inhibition)
Description: Maize sprouts placed onto an agar layer in 24-well microtiter plates were treated with aqueous test solutions prepared from 10′000 ppm DMSO stock solutions by spraying. After drying, the plates were infested with L2 larvae (6 to 10 per well). The samples were assessed for mortality and growth inhibition in comparison to untreated samples 4 days after infestation. The following compounds gave an effect of at least 80% in at least one of the two categories (mortality or growth inhibition) at an application rate of 200 ppm: P1, P2, P3, P4, P5, P7, P8, P9, P10, P11, P12, P13, P14, P15, P16, P17, P18, P19, P20, P21, P22, P23, P24, P25, P26, P27, P28, P29, P30, P31, P33, P34, P35, P36, P37, P38, P39, P40, P41, P42, P43, P45, P46, P47, P48, P49, P50, P51, P52, P53, P55, P57, P58, P59, P60, P61, P62, P63, P64, P65, P66, P67, P69, P71, P75, P81, P82, P83.

Structure (SMILES) | percent effect (mortality or growth inhibition) at 200 ppm (Plutella xylostella) | percent control (mortality, anti-feedant effect or growth inhibition) at 200 ppm (Chilo suppressalis) | percent control (mortality, anti-feedant effect or growth inhibition) at 200 ppm (Spodoptera littoralis) | percent effect (mortality or growth inhibition) at 200 ppm (Diabrotica balteata) | mortality at 50 ppm (Spodoptera littoralis; 50 ppm) | mortality at 50 ppm (Chilo suppressalis) | mortality at 3.12 ppm (Spodoptera littoralis) | mortality at 12.5 ppm (Chilo suppressalis; 12.5 ppm)
C[C@H](Nc1ncnc2c(Cl)cc(I)cc12)c1ncnn1-c1cnc(C(N)=O)cn1 [Compound P77, 5-[5-[(1S)-1-[(8-chloro-6-iodo-quinazolin-4-yl)amino]ethyl]-1,2,4-triazol-1-yl]pyrazine-2-carboxamide] | ≥ 80% | ≥ 80% | – | – | – | – | – | –
C[C@H](Nc1ncnc2c(C(F)(F)F)cc(Cl)cc12)c1ncnn1-c1cc(C(=O)NC2(C)CSC2)ncn1 [Compound P45, 6-[5-[(1S)-1-[[6-chloro-8-(trifluoromethyl)quinazolin-4-yl]amino]ethyl]-1,2,4-triazol-1-yl]-N-(3-methylthietan-3-yl)pyrimidine-4-carboxamide] | ≥ 80% | – | ≥ 80% | ≥ 80% | – | – | – | –
C[C@H](Nc1ncnc2c(C(F)(F)F)cc(Cl)cc12)c1ncnn1-c1cc(C(=O)NC(C)(C#N)C2CC2)ncn1 (stereo partly drawn) [Compound P42, 6-[5-[(1S)-1-[[6-chloro-8-(trifluoromethyl)quinazolin-4-yl]amino]ethyl]-1,2,4-triazol-1-yl]-N-(1-cyano-1-cyclopropyl-ethyl)pyrimidine-4-carboxamide] | ≥ 80% | ≥ 80% | ≥ 80% | ≥ 80% | – | – | – | –
CONC(=O)c1cc(-n2ncnc2[C@H](C)Nc2ncnc3c(C(F)(F)F)cc(Cl)cc23)ncn1 [Compound P28, 6-[5-[(1S)-1-[[6-chloro-8-(trifluoromethyl)quinazolin-4-yl]amino]ethyl]-1,2,4-triazol-1-yl]-N-methoxy-pyrimidine-4-carboxamide] | ≥ 80% | ≥ 80% | ≥ 80% | ≥ 80% | – | – | – | –
C[C@H](Nc1ncnc2c(Cl)cc(I)cc12)c1ncnn1-c1ncc(C#N)s1 [WO 22/268648 P20, reference compound] | – | – | – | – | 0% | – | – | –
C[C@H](Nc1ncnc2c(C(F)(F)F)cc(Cl)cc12)c1ncnn1-c1cc(C(=O)NC2(C)CS(=O)(=O)C2)ncn1 [Compound P44, 6-[5-[(1S)-1-[[6-chloro-8-(trifluoromethyl)quinazolin-4-yl]amino]ethyl]-1,2,4-triazol-1-yl]-N-(3-methyl-1,1-dioxo-thietan-3-yl)pyrimidine-4-carboxamide] | ≥ 80% | – | – | – | – | – | – | –
C[C@H](Nc1ncnc2c(C(F)(F)F)cc(Cl)cc12)c1ncnn1-c1cc(C(=O)N2CCOCC2)ncn1 [Compound P32, [6-[5-[(1S)-1-[[6-chloro-8-(trifluoromethyl)quinazolin-4-yl]amino]ethyl]-1,2,4-triazol-1-yl]pyrimidin-4-yl]-morpholino-methanone] | ≥ 80% | ≥ 80% | ≥ 80% | – | – | – | – | –
CC(Nc1ncnc2c(I)cc(Cl)cc12)c1nccnc1-c1cc(C(N)=O)ncn1 (stereo not drawn) [Compound P58, 6-[3-[1-[(6-chloro-8-iodo-quinazolin-4-yl)amino]ethyl]pyrazin-2-yl]pyrimidine-4-carboxamide] | ≥ 80% | ≥ 80% | ≥ 80% | ≥ 80% | – | – | – | –
CCN(C)C(=O)c1cnc(-n2ncnc2[C@H](C)Nc2ncnc3c(C(F)(F)F)cc(Cl)cc23)s1 [Compound P6, 2-[5-[(1S)-1-[[6-chloro-8-(trifluoromethyl)quinazolin-4-yl]amino]ethyl]-1,2,4-triazol-1-yl]-N-ethyl-N-methyl-thiazole-5-carboxamide] | ≥ 80% | ≥ 80% | ≥ 80% | – | – | – | – | –
CC(Nc1ncnc2c(C(F)(F)F)cc(Cl)cc12)c1nccnc1-c1ncccn1 (stereo not drawn) [WO 21/083936 P.130, reference compound] | – | – | – | – | – | 0% | 0% | –
C[C@H](Nc1ncnc2c(C(F)(F)F)cc(Cl)cc12)c1ncnn1-c1cc(C(=O)N(C)CC2CC2)ncn1 [Compound P78, 6-[5-[(1S)-1-[[6-chloro-8-(trifluoromethyl)quinazolin-4-yl]amino]ethyl]-1,2,4-triazol-1-yl]-N-(cyclopropylmethyl)-N-methyl-pyrimidine-4-carboxamide] | ≥ 80% | – | – | – | – | – | – | –
CON(C)C(=O)c1cc(-n2ncnc2[C@H](C)Nc2ncnc3c(C(F)(F)F)cc(Cl)cc23)ncn1 [Compound P27, 6-[5-[(1S)-1-[[6-chloro-8-(trifluoromethyl)quinazolin-4-yl]amino]ethyl]-1,2,4-triazol-1-yl]-N-methoxy-N-methyl-pyrimidine-4-carboxamide] | ≥ 80% | – | ≥ 80% | ≥ 80% | – | – | – | –
C[C@H](Nc1ncnc2c(Cl)cc(I)cc12)c1ncnn1-c1cnc(C(=O)NCC#N)cn1 [Compound P70, 5-[5-[(1S)-1-[(8-chloro-6-iodo-quinazolin-4-yl)amino]ethyl]-1,2,4-triazol-1-yl]-N-(cyanomethyl)pyrazine-2-carboxamide] | ≥ 80% | ≥ 80% | ≥ 80% | – | – | – | – | –
C[C@H](Nc1ncnc2c(C(F)(F)F)cc(Cl)cc12)c1ncnn1-c1ncc(C#N)s1 [WO 22/268648 P10, reference compound] | – | – | – | – | – | – | – | 0%
C[C@H](Nc1ncnc2c(C(F)(F)F)cc(Cl)cc12)c1ncnn1-c1cc(C(=O)NC2(C#N)CC2)ncn1 [Compound P22, 6-[5-[(1S)-1-[[6-chloro-8-(trifluoromethyl)quinazolin-4-yl]amino]ethyl]-1,2,4-triazol-1-yl]-N-(1-cyanocyclopropyl)pyrimidine-4-carboxamide] | ≥ 80% | ≥ 80% | ≥ 80% | ≥ 80% | – | – | – | –
CC(Nc1ncnc2c(C(F)(F)F)cc(Cl)cc12)c1nccnc1-c1cc(C(N)=O)ncn1 (stereo not drawn) [Compound P57, 6-[3-[1-[[6-chloro-8-(trifluoromethyl)quinazolin-4-yl]amino]ethyl]pyrazin-2-yl]pyrimidine-4-carboxamide] | ≥ 80% | ≥ 80% | ≥ 80% | ≥ 80% | – | 100% | 80% | –
C[C@H](Nc1ncnc2c(C(F)(F)F)cc(Cl)cc12)c1ncnn1-c1ccc(C(N)=O)nn1 [Compound P20, 6-[5-[(1S)-1-[[6-chloro-8-(trifluoromethyl)quinazolin-4-yl]amino]ethyl]-1,2,4-triazol-1-yl]pyridazine-3-carboxamide] | ≥ 80% | ≥ 80% | – | ≥ 80% | – | – | – | –
